Read-outs that look alike come from different tables or passages of the source.
Legend:
[1] = biological target: Mnk2 (Homo sapiens (Human), UniProt Q9HBH9); assay: Mnk2 kinase inhibition, ADP-Glo ADP monitoring assay; assay type: biochemical
Description: (§1) The synthesized compounds then were tested for inhibition of the kinase activity (IC50) of Mnk1 and/or Mnk2 using the ADP monitoring assay for kinases described in Zegzouti, H.; Zdanovskaia, M.; Hsiao, K.; Goueli, S. A., ADP-Glo: A Bioluminescent and homogeneous ADP monitoring assay for kinases.

[2] = biological target: Mnk1 (Homo sapiens (Human), UniProt Q9BUB5); assay: Mnk1 kinase inhibition, ADP-Glo ADP monitoring assay; assay type: biochemical
Description: as §1

[3] = ADP-Glo kinase assay, read-out: Mnk2 IC50
[4] = ADP-Glo kinase assay, unit inferred, read-out: Mnk2 IC50
[5] = unit inferred, read-out: Mnk1 IC50
[6] = ADP-Glo kinase assay, read-out: Mnk2 inhibition IC50 (+,++,+++)
[7] = read-out: Mnk1 inhibition IC50 (+,++,+++)

Mnk2, sequence (Q9HBH9 whole entry): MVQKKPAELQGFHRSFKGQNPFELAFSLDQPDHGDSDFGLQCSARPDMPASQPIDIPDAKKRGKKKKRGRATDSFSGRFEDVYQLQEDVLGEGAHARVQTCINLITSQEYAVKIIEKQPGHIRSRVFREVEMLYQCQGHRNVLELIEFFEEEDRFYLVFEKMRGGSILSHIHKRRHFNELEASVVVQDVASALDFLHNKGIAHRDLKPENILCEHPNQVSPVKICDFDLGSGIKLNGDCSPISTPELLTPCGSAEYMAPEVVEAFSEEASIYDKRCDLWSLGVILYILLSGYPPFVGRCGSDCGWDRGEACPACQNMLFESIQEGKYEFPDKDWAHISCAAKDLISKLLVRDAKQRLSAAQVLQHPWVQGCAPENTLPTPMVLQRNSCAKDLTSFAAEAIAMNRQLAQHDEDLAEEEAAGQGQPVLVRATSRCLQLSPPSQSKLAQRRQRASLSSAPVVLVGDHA
Mnk1, sequence (Q9BUB5 whole entry): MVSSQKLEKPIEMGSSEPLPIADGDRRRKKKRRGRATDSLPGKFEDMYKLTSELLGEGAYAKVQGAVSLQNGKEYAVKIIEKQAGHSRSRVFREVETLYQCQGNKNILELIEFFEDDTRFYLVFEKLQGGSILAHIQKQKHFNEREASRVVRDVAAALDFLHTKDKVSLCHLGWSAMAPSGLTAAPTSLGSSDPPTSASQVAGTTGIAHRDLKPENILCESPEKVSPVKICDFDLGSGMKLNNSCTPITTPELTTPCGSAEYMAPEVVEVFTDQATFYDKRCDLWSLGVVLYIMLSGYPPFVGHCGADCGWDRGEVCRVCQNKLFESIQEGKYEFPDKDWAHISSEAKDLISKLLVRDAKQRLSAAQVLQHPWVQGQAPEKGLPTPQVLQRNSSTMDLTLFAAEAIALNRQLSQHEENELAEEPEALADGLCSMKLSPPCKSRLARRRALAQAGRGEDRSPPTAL

| SMILES | IC50 [1, 3] [µM] | IC50 ([2]; read-out: Mnk1 IC50) [µM] | IC50 [1, 4] [µM] | IC50 [2, 5] [µM] | also measured |
| --- | --- | --- | --- | --- | --- |
| c1ccc2c(c1)CCN2c1ccnc(N[C@H]2CCOC2)n1 [NUCC-0176231] | 0.38 | 1.1 |  |  |  |
| c1ccc2c(c1)CCN2c1ccnc(N[C@@H]2CCOC2)n1 [NUCC-0176232] | 2.3 | 4.6 |  |  |  |
| c1ccc2c(c1)CCN2c1ccnc(NCCc2ccncc2)n1 [NUCC-0176233] | 4.7 | 8.5 |  |  |  |
| Fc1cnc(NCCc2ccncc2)nc1-n1ccc2ccccc21 [NUCC-0176283] | 10 | 8.7 |  |  |  |
| c1ccc2c(c1)ncn2-c1cc(NCCc2ccncc2)ncn1 [NUCC-0176284] | 1.2 | 2.6 |  |  |  |
| c1ccc2c(c1)ccn2-c1cc(NCCc2ccncc2)ncn1 [NUCC-0176285] | 6 | 4.7 |  |  |  |
| c1ccc2c(c1)ncn2-c1cc(NCCc2ccncc2)cnn1 [NUCC-0176338] |  |  |  |  | Mnk2 IC50 ([1]; ADP-Glo kinase assay): no activity; Mnk1 IC50 [2]: no activity |
| c1ccc2c(c1)c1ccccc1n2-c1ccnc(NCCc2ccncc2)n1 [NUCC-0176339] | 10 | 11 |  |  |  |
| c1cncc(CCNc2nccc(-n3cnc4ccccc43)n2)c1 [NUCC-0176340] | 0.069 | 0.55 |  |  |  |
| COCCNc1nccc(-n2cnc3ccccc32)n1 [NUCC-0176342] | 0.2 | 1.6 |  |  |  |
| O=C1CCCN1CCCNc1nccc(-n2cnc3ccccc32)n1 [NUCC-0176344] | 0.78 | 7.2 |  |  |  |
| O=C1CCCN1CCCNc1ccnc(-n2cnc3ccccc32)n1 [NUCC-0176345] | 2.6 | 10 |  |  |  |
| c1ccc2c(c1)cnn2-c1ccnc(NCCc2ccncc2)n1 [NUCC-0176346] | 4.7 | 5.4 |  |  |  |
| c1ccc2c(c1)cnn2-c1nccc(NCCc2ccncc2)n1 [NUCC-0176347] | 5.6 | 8.1 |  |  |  |
| CC(O)CNc1ccnc(-n2cnc3ccccc32)n1 (centres unmarked) [NUCC-0176348] | 0.13 | 0.71 |  |  |  |
| Nc1ccnc(-n2cnc3ccccc32)n1 [NUCC-0176349] | 1.4 | 4.1 |  |  |  |
| O=c1c2ccccc2nnn1-c1ccnc(NCCc2ccncc2)n1 [NUCC-0176350] |  |  |  |  | Mnk2 IC50 ([1]; ADP-Glo kinase assay): no activity; Mnk1 IC50 [2]: no activity |
| O=C(Nc1ccccc1)Nc1nccc(-n2cnc3ccccc32)n1 [NUCC-0176351] |  |  |  |  | Mnk2 IC50 ([1]; ADP-Glo kinase assay): no activity; Mnk1 IC50 [2]: no activity |
| OCCNc1nccc(-n2cnc3ccccc32)n1 [NUCC-0176352] | 0.17 | 0.65 |  |  |  |
| O=c1oc2ccccc2n1-c1ccnc(NCCc2ccncc2)n1 [NUCC-0176353] | 6.8 | 9.5 |  |  |  |
| S=c1oc2ccccc2n1-c1ccnc(NCCc2ccncc2)n1 [NUCC-0176354] | 4.9 | 10 |  |  |  |
| Clc1cnc(NCCc2c[nH]c3ccccc23)nc1-n1cnc2ccccc21 [NUCC-0176355] | 2.4 | 13 |  |  |  |
| COC(=O)CNc1ncc(Cl)c(-n2cnc3ccccc32)n1 [NUCC-0176356] | 1.4 | 11 |  |  |  |
| Clc1cnc(NCCc2cccnc2)nc1-n1cnc2ccccc21 [NUCC-0176357] | 0.25 | 2.3 |  |  |  |
| OCCNc1ncc(Cl)c(-n2cnc3ccccc32)n1 [NUCC-0176358] | 0.13 | 0.45 |  |  |  |

| SMILES | IC50 [1, 3] [µM] | IC50 ([2]; read-out: Mnk1 IC50) [µM] | IC50 [1, 4] [µM] | IC50 [2, 5] [µM] | also measured |
| --- | --- | --- | --- | --- | --- |
| NC(=O)CNc1ncc(Cl)c(-n2cnc3ccccc32)n1 [NUCC-0176359] | 0.32 | 1.5 |  |  |  |
| Clc1cnc(NCc2cccnc2)nc1-n1cnc2ccccc21 [NUCC-0176360] | 1 | 4.5 |  |  |  |
| O=C(O)CNc1ncc(Cl)c(-n2cnc3ccccc32)n1 [NUCC-0176361] |  |  |  |  | Mnk2 IC50 ([1]; ADP-Glo kinase assay): no activity; Mnk1 IC50 [2]: no activity |
| O=C(Nc1cc(C(F)(F)F)cc(C(F)(F)F)c1)Nc1nccc(-n2cnc3ccccc32)n1 [NUCC-0176362] |  |  |  |  | Mnk2 IC50 ([1]; ADP-Glo kinase assay): no activity; Mnk1 IC50 [2]: no activity |
| FC(F)(F)c1cc(NC(=S)Nc2nccc(-n3cnc4ccccc43)n2)cc(C(F)(F)F)c1 [NUCC-0176363] |  |  |  |  | Mnk2 IC50 ([1]; ADP-Glo kinase assay): no activity; Mnk1 IC50 [2]: no activity |
| O=[N+]([O-])c1ccc(NCCNc2nccc(-n3cnc4ccccc43)n2)nc1 [NUCC-0176365] | 2.1 | 7.4 |  |  |  |
| O=[N+]([O-])c1ccc(NCCNc2ccnc(-n3cnc4ccccc43)n2)nc1 [NUCC-0176366] | 2.5 | 8.5 |  |  |  |
| O=C1NCCCCC1Nc1nccc(-n2cnc3ccccc32)n1 (centres unmarked) [NUCC-0176367] | 0.5 | 2.6 |  |  |  |
| O=C1NCCCCC1Nc1ccnc(-n2cnc3ccccc32)n1 (centres unmarked) [NUCC-0176368] | 5.2 | 11 |  |  |  |
| OC1Cc2ccccc2C1Nc1nccc(-n2cnc3ccccc32)n1 (centres unmarked) [NUCC-0176369] |  |  |  |  | Mnk2 IC50 ([1]; ADP-Glo kinase assay): no activity; Mnk1 IC50 [2]: no activity |
| CCNC(=O)Nc1nccc(-n2cnc3ccccc32)n1 [NUCC-0196222] |  |  | 2.2 | > 10 |  |
| Nc1cc(-n2cnc3ccccc32)nc(NCc2cccnc2)n1 [NUCC-0196223] |  |  | 1.8 | > 10 |  |
| Brc1cnc(NCCc2ccncc2)nc1-n1cnc2ccccc21 [NUCC-0196228] |  |  | 0.069 | 0.55 |  |
| COC(=O)c1cc(-n2cnc3ccccc32)nc(NCCc2ccncc2)n1 [NUCC-0196230] |  |  | > 10 | > 10 |  |
| Nc1cnc(NCCc2ccncc2)nc1-n1cnc2ccccc21 [NUCC-0196231] |  |  | > 10 | > 10 |  |
| O=C(NC1CC1)c1cc(-n2cnc3ccccc32)nc(NCCc2ccncc2)n1 [NUCC-0196234] |  |  | 5.4 | > 10 |  |
| c1cc(NCCc2ccncc2)nc(-n2cnc3ccccc32)c1 [NUCC-0196235] |  |  | 0.01 | 0.1 |  |
| O=C(O)c1cc(-n2cnc3ccccc32)nc(NCCc2ccncc2)n1 [NUCC-0196239] |  |  | 6.9 | > 10 |  |
| N#Cc1cnc(NCCc2ccncc2)nc1-n1cncn1 [NUCC-0196250] |  |  | > 10 | > 10 |  |
| c1ccc(C2CC2Nc2nccc(-n3cnc4ccccc43)n2)cc1 (centres unmarked) [NUCC-0196255] |  |  | 0.92 | > 10 |  |
| O[C@@H](c1ccccc1)[C@H](Nc1nccc(-n2cnc3ccccc32)n1)c1ccccc1 [NUCC-0196256] |  |  | 3.8 | 7.3 |  |
| O[C@H](c1ccccc1)[C@@H](Nc1nccc(-n2cnc3ccccc32)n1)c1ccccc1 [NUCC-0196257] |  |  | 0.31 | 1.3 |  |
| O[C@@H](c1ccccc1)[C@H](Nc1ccnc(-n2cnc3ccccc32)n1)c1ccccc1 [NUCC-0196258] |  |  | 7 | > 10 |  |
| O[C@H](c1ccccc1)[C@@H](Nc1ccnc(-n2cnc3ccccc32)n1)c1ccccc1 [NUCC-0196259] |  |  | 0.32 | 5.6 |  |
| c1ccc2c(c1)ncn2-c1ccnc(NCCc2c[nH]c3ccccc23)n1 [NUCC-0196260] |  |  | 0.09 | 0.5 |  |

| SMILES | IC50 [1, 3] [µM] | IC50 ([2]; read-out: Mnk1 IC50) [µM] | IC50 [1, 4] [µM] | IC50 [2, 5] [µM] | also measured |
| --- | --- | --- | --- | --- | --- |
| c1ccc2c(c1)ncn2-c1nccc(NCCc2c[nH]c3ccccc23)n1 [NUCC-0196261] |  |  | 0.11 | 0.92 |  |
| c1ccc2c(c1)ncn2-c1ccnc(NCCc2ccncc2)c1 [NUCC-0196262] |  |  | 1.2 | 1.3 |  |
| Oc1cnc(NCCc2ccncc2)nc1-n1cnc2ccccc21 [NUCC-0196263] |  |  | > 10 | > 10 |  |
| N#Cc1cnc(NCCc2ccncc2)nc1-n1cnc(-c2ccccc2)c1 [NUCC-0196264] |  |  | 0.057 | 0.096 |  |
| NC(=O)c1cc(-n2cnc3ccccc32)nc(NCCc2ccncc2)n1 [NUCC-0196265] |  |  | 0.89 | 1.6 |  |
| Nc1cc(-n2cnc3ccccc32)nc(NCCc2ccncc2)n1 [NUCC-0196307] |  |  | 0.17 | 0.87 |  |
| N#Cc1cnc(NCCc2ccncc2)nc1-n1ccnc1 [NUCC-0196308] |  |  | 6.9 | 2.1 |  |
| COC(=O)c1cnc(NCCc2ccncc2)nc1-n1cnc2ccccc21 [NUCC-0196309] |  |  | > 10 | > 10 |  |
| CCOC(=O)c1cnc(NCCc2ccncc2)nc1-n1cnc2ccccc21 [NUCC-0196310] |  |  | 5.4 | 2.1 |  |
| Fc1ccc(CCNc2ncc(Cl)c(-n3cnc4ccccc43)n2)cc1 [NUCC-0200783] |  |  |  |  | IC50 [1, 6]: < 1 µM; IC50 [2, 7]: > 10 µM |
| FC(F)(F)c1ccc(CCNc2ncc(Cl)c(-n3cnc4ccccc43)n2)cc1 [NUCC-0200784] |  |  |  |  | IC50 [1]: 1 to 10 µM; IC50 [2, 7]: > 10 µM |
| N#Cc1ccc(CCNc2ncc(Cl)c(-n3cnc4ccccc43)n2)cc1 [NUCC-0200785] |  |  |  |  | IC50 [1, 6]: < 1 µM; IC50 [2, 7]: > 10 µM |
| N#Cc1cnc(Oc2ccc(Cl)cc2)nc1-n1cnc2ccccc21 [NUCC-0200787] |  |  |  |  | IC50 [1, 6]: < 1 µM; IC50 [2, 7]: < 1 µM |
| Brc1cnc(OCCc2ccncc2)nc1-n1cnc2ccccc21 [NUCC-0200789] |  |  |  |  | IC50 [1, 6]: < 1 µM; IC50 [2, 7]: < 1 µM |
| N#Cc1cnc(OCCN2CCOCC2)nc1-n1cnc2ccccc21 [NUCC-0200791] |  |  |  |  | IC50 [1, 6]: < 1 µM; IC50 [2, 7]: 1 to 10 µM |
| N#Cc1cnc(Oc2cccnc2)nc1-n1cnc2ccccc21 [NUCC-0200794] |  |  |  |  | IC50 [1, 6]: < 1 µM; IC50 [2, 7]: 1 to 10 µM |
| N#Cc1cnc(OC2CCCOC2)nc1-n1cnc2ccccc21 (centres unmarked) [NUCC-0200795] |  |  |  |  | IC50 [1]: 1 to 10 µM; IC50 [2, 7]: > 10 µM |
| Cc1cc2ncn(-c3nc(NCCc4ccncc4)ncc3Cl)c2cc1C [NUCC-0200797] |  |  |  |  | IC50 [1, 6]: < 1 µM; IC50 [2, 7]: > 10 µM |
| O=[N+](O)c1ccc2c(c1)ncn2-c1nc(NCCc2ccncc2)ncc1Cl [NUCC-0200798] |  |  |  |  | IC50 [1]: 1 to 10 µM; IC50 [2, 7]: > 10 µM |
| COC(=O)c1ccc2c(c1)ncn2-c1nc(NCCc2ccncc2)ncc1Cl [NUCC-0200799] |  |  |  |  | IC50 [1, 6]: < 1 µM; IC50 [2, 7]: 1 to 10 µM |
| Fc1ccc2c(ncn2-c2nc(NCCc3ccncc3)ncc2Cl)c1F [NUCC-0200800] |  |  |  |  | Mnk2 inhibition IC50 (+,++,+++) ([1]; ADP-Glo kinase assay): no activity; Mnk1 inhibition IC50 (+,++,+++) [2]: no activity |
| Clc1cnc(NCCc2ccncc2)nc1-n1nnc2ccccc21 [NUCC-0200801] |  |  |  |  | IC50 [1]: 1 to 10 µM; IC50 [2, 7]: > 10 µM |
| N#Cc1cnc(NCCc2ccncc2)nc1-n1nnc2ccccc21 [NUCC-0200802] |  |  |  |  | IC50 [1, 6]: > 10 µM; IC50 [2, 7]: > 10 µM |
